The test system of test [1] is male Lewis rats. The test is described as follows: Carrageenan Pleurisy Assay. The format is in vivo, rat. Conditions: for CARRAGEENAN PLEURISY (4 hr) LOCAL ED50 (MG/RAT) CELLS: inhibition of inflammatory cells (neutrophils) in pleural exudate four hours after carrageenan 0.075 mg/rat; for CARRAGEENAN PLEURISY (4 hr) LOCAL ED50 (MG/RAT) CELLS / CARRAGEENAN PLEURISY (4 hr) LOCAL ED50 (MG/RAT) EDEMA: local administration; for CARRAGEENAN PLEURISY (4 hr) LOCAL ED50 (MG/RAT) EDEMA: inhibition of pleural edema four hours after carrageenan 0.075 mg/rat. How it is done:
The antiinflammatory activity of compounds of the invention was determined by the procedure of Vinegar, R, et al., Proc. Soc. Exp. Biol. Med., 1981, 168, 24–32, using male Lewis rats of 150±±}20 grams. The carrageenan dose was 0.075 mg/rat. Pleural exudate was harvested four hours after injection of carrageenan. Acute antiinflammatory activity was determined by inhibition of pleural edema and inflammatory cells (neutrophils) from a negative (vehicle) control group.

Test [2] has as its system male Lewis rats. The test is described as follows: Acetic Acid Colitis Assay. The class given is in vivo, rat. The conditions noted are these: for ACETIC ACID COLITIS (24 hr) ACTIVE DOSE [MG/KG] (ROUTE) TISSUE WEIGHT: colon weight (edema); for ACETIC ACID COLITIS (24 hr) ACTIVE DOSE [MG/KG] (ROUTE) MPO: mucosal MPO levels. How it is done:
Compounds were administered either orally or rectally 24, 16 and 4 hours prior to the 40 second instillation of 3% acetic acid solution in the proximal 6 cm of the colon under light anesthesia. The colon was immediately washed with 5 cc of saline. 24 hours later the rats were sacrificed and 6 cm of the proximal colon was excised weighed for edema. Neutrophil inflammation was determined by measuring MPO levels in the scraped colonic mucosa from these rats.

The test system of another test is Male CD-1 mice. Put plainly: In Vivo Septic Shock Model: C Parvum/LPS Shock. Conditions: oral dose 75 mg/kg, 2 hours before the LPS and at the same time as the LPS. How it is done:
Male CD-1 mice, 25–30 g (Charles River: Raleigh, N.C.), are injected intravenously (i.v.) with 100 μμ}g killed C. Parvum (Coparvax; Burroughs Wellcome, RTP, NC).Ten days later the mice are injected i.v. with 20 μμ}g E. Coli 026:B6 lipopolysaccharide (LPS; Difco Labs, Detroit, Mich.) in the presence of the analgesic butorphenol (150 μμ}g per mouse).
The test compounds are dissolved in dimethyl sulphoxide and diluted into 0.5% methyl cellulose and then dosed orally 2 hours before the LPS and at the same time as the LPS.

The mark [3] stands for this setting: ic = intracolonic administration.

Consider `COCCOCCOCCOCCOCCOCCOCCOCCOCCOC(=O)/C=C/c1ccc(-c2nc3c(=O)n(CC4CCCCC4)c(=O)n(CC4CCCCC4)c3[nH]2)cc1` [Example 10, (E)-4-(1,3-Bis(cyclohexylmethyl)-1,2,3,6-tetrahydro-2,6-dioxo-9H-purin-8-yl)cinnamic Acid Nonaethylene Glycol Methyl Ether Ester], for which, in the test with male Lewis rats [1], the “CARRAGEENAN PLEURISY (4 hr) LOCAL ED50 (MG/RAT) CELLS” value (“CARRAGEENAN PLEURISY … (MG/RAT) CELLS” for short) is 0.5 MG/RAT and the “CARRAGEENAN PLEURISY (4 hr) LOCAL ED50 (MG/RAT) EDEMA” value (“CARRAGEENAN PLEURISY … (MG/RAT) EDEMA” for short) is recorded as 0.5 MG/RAT. Besides, in the test with male Lewis rats [2] (po = oral administration), the “ACETIC ACID COLITIS (24 hr) ACTIVE DOSE [MG/KG] (ROUTE) TISSUE WEIGHT” value (“ACETIC ACID COLITIS … (ROUTE) TISSUE WEIGHT” for short) was determined as 50 mg/kg and the “ACETIC ACID COLITIS (24 hr) ACTIVE DOSE [MG/KG] (ROUTE) MPO” value (“ACETIC ACID COLITIS … (ROUTE) MPO” for short) was 50 mg/kg.

As for `COCCOCCOCCOCCOCCOCCOCCOCCOCCOCCOC(=O)/C=C/c1ccc(-c2nc3c(=O)n(CC4CCCCC4)c(=O)n(CC4CCCCC4)c3[nH]2)cc1` [Example 9, (E)-4-(1,3-Bis(cyclohexylmethyl)-1,2,3,6-tetrahydro-2,6-dioxo-9H-purin-8-yl)cinnamic Acid Decaethylene Glycol Methyl Ether Ester], in the test with male Lewis rats [1], the “CARRAGEENAN PLEURISY … (MG/RAT) CELLS” value stood at 0.02 MG/RAT and the “CARRAGEENAN PLEURISY … (MG/RAT) EDEMA” value was 0.2 MG/RAT. For the same compound, in the test with male Lewis rats [2] (setting [3]), the “ACETIC ACID COLITIS … (ROUTE) TISSUE WEIGHT” value is 5.0 mg/kg and the “ACETIC ACID COLITIS … (ROUTE) MPO” value is 5.0 mg/kg. In the test with Male CD-1 mice, the “% Survivors” value is on record as 50% and the Alive/Total is reported as 4/8.

On to “(E)-4-(1,3-Bis(cyclohexylmethyl)-1,2,3,6-tetrahydro-2,6-dioxo-9H-purin-8-yl)cinnamic Acid Polyethylene Glycol (n=13) Ester [Example 18]”, for which, in the test on male Lewis rats [1], the “CARRAGEENAN PLEURISY … (MG/RAT) CELLS” value is reported as 0.1 MG/RAT and the “CARRAGEENAN PLEURISY … (MG/RAT) EDEMA” value is 0.1 MG/RAT.

Turning to “(E)-4-(1,3-Bis(cyclohexylmethyl)-1,2,3,6-tetrahydro-2,6-dioxo-9H-purin-8-yl)cinnamic Acid Polyethylene Glycol (n=32.2) Ester [Example 16]”, in the test on male Lewis rats [1], the “CARRAGEENAN PLEURISY … (MG/RAT) CELLS” value amounted to 0.2 MG/RAT and the “CARRAGEENAN PLEURISY … (MG/RAT) EDEMA” value was 0.2 MG/RAT.

As for `C[C@@H]1C[C@H]2[C@@H]3CCC4=CC(=O)C=C[C@]4(C)[C@@]3(F)[C@@H](O)C[C@]2(C)[C@@]1(O)C(=O)CO` [Dexamethasone, reference compound], in the test with male Lewis rats [1], the “CARRAGEENAN PLEURISY … (MG/RAT) CELLS” value is reported as 0.02 MG/RAT and the “CARRAGEENAN PLEURISY … (MG/RAT) EDEMA” value is on record as 0.015 MG/RAT. Besides, in the test with male Lewis rats [2] (setting [3]), the “ACETIC ACID COLITIS … (ROUTE) TISSUE WEIGHT” value amounted to 0.17 mg/kg and the “ACETIC ACID COLITIS … (ROUTE) MPO” value worked out at 0.03 mg/kg.

On to “(E)-4-(1,3-Bis(cyclohexylmethyl)-1,2,3,6-tetrahydro-2,6-dioxo-9H-purin-8-yl)cinnamic Acid Polyethylene Glycol (n=18.9) Ester [Example 17]”, for which, in the test with male Lewis rats [1], the “CARRAGEENAN PLEURISY … (MG/RAT) CELLS” value was found to be 0.1 MG/RAT and the “CARRAGEENAN PLEURISY … (MG/RAT) EDEMA” value worked out at 0.1 MG/RAT.

Regarding “(E)-4-(1,3-Bis(cyclohexylmethyl)-1,2,3,6-tetrahydro-2,6-dioxo-9H-purin-8-yl)cinnamic Acid Polyethylene Glycol (n=41.5) Methyl Ether Ester [Example 14]”, in the test with male Lewis rats [1], the “CARRAGEENAN PLEURISY … (MG/RAT) CELLS” value is on record as “Inactive” and the “CARRAGEENAN PLEURISY … (MG/RAT) EDEMA” value was 0.5 MG/RAT.

On to “(E)-4-(1,3-Bis(cyclohexylmethyl)-1,2,3,6-tetrahydro-2,6-dioxo-9H-purin-8-yl)cinnamic Acid Polyethylene Glycol (n=15) Methyl Ether Ester [Example 15]”, for which, in the test with male Lewis rats [1], the “CARRAGEENAN PLEURISY … (MG/RAT) CELLS” value amounted to 0.4 MG/RAT and the “CARRAGEENAN PLEURISY … (MG/RAT) EDEMA” value is on record as 0.2 MG/RAT. For the same compound, in the test with male Lewis rats [2] (po = oral administration), the “ACETIC ACID COLITIS … (ROUTE) TISSUE WEIGHT” value was “inactive” and the “ACETIC ACID COLITIS … (ROUTE) MPO” value came out at 50 mg/kg.

In the case of `O=C(O)/C=C/c1ccc(-c2nc3c(=O)n(CC4CCCCC4)c(=O)n(CC4CCCCC4)c3[nH]2)cc1` [compound 1, (E)-4-[1,3 Bis(cyclohexylmethyl)-1,2,3,6-tetrahydro-2,6-dioxo-9H-purin-8-yl]cinnamic acid, reference compound], the “activity in Carrageenan Pleurisy Assay” value in the test with male Lewis rats [1] was “inactive”. The “activity in Acetic Acid Colitis Assay” value with male Lewis rats [2] is “inactive”. For the same compound, in the test on Male CD-1 mice, the “% Survivors” value amounted to 25% and the Alive/Total is given as 2/8.

The values above are taken from patent US7002012B2, “Substituted (1,3-bis(cyclohexylmethyl)-1,2,3,6-tetrahydro-2,6-dioxo-9h-purin-8-YI)phenyl derivatives, their preparation and their use in the treatment of inflammatory conditions and immune disorders” (SmithKline Beecham Corporation, priority 1997, dated 2006).
